Series [1] addresses Ephrin type-A receptor 2 (Homo sapiens) (UniProt P29317). Briefly: Inhibition of EPHA2 (unknown origin) at 100 nM relative to control.
In series [2] the target is Platelet-derived growth factor receptor beta (Homo sapiens) (UniProt P09619). Briefly: Inhibition of PDGFRbeta (unknown origin) at 100 nM relative to control.
For series [3], the target named is Receptor-type tyrosine-protein kinase FLT3 (Homo sapiens) (UniProt P36888). Briefly: Inhibition of FLT3 (unknown origin) at 100 nM relative to control.
The target of series [4] is Vascular endothelial growth factor receptor 1 (Homo sapiens) (UniProt P17948). Briefly: Inhibition of VEGFR1 (unknown origin) at 100 nM relative to control.
Series [5] addresses Insulin-like growth factor 1 receptor (Homo sapiens) (UniProt P08069). The experiment in a line: Inhibition of IGF1R (unknown origin) at 100 nM relative to control.
For series [6], the target named is Macrophage colony-stimulating factor 1 receptor (Homo sapiens) (UniProt P07333). Briefly: Inhibition of CSF1R (unknown origin) at 100 nM relative to control.
The target of series [7] is Insulin receptor (Homo sapiens) (UniProt P06213). Briefly: Inhibition of IR (unknown origin) at 100 nM relative to control.
Series [8] concerns the target Mast/stem cell growth factor receptor Kit (Homo sapiens) (UniProt P10721). The experiment in a line: Inhibition of cKIT (unknown origin) at 100 nM relative to control.
Series [9] deals with Focal adhesion kinase 1 (Homo sapiens) (UniProt Q05397). The experiment in a line: Inhibition of FAK (unknown origin) at 100 nM relative to control.
Sequence of Focal adhesion kinase 1 (Homo sapiens) (Q05397 2-1052 limits assumed): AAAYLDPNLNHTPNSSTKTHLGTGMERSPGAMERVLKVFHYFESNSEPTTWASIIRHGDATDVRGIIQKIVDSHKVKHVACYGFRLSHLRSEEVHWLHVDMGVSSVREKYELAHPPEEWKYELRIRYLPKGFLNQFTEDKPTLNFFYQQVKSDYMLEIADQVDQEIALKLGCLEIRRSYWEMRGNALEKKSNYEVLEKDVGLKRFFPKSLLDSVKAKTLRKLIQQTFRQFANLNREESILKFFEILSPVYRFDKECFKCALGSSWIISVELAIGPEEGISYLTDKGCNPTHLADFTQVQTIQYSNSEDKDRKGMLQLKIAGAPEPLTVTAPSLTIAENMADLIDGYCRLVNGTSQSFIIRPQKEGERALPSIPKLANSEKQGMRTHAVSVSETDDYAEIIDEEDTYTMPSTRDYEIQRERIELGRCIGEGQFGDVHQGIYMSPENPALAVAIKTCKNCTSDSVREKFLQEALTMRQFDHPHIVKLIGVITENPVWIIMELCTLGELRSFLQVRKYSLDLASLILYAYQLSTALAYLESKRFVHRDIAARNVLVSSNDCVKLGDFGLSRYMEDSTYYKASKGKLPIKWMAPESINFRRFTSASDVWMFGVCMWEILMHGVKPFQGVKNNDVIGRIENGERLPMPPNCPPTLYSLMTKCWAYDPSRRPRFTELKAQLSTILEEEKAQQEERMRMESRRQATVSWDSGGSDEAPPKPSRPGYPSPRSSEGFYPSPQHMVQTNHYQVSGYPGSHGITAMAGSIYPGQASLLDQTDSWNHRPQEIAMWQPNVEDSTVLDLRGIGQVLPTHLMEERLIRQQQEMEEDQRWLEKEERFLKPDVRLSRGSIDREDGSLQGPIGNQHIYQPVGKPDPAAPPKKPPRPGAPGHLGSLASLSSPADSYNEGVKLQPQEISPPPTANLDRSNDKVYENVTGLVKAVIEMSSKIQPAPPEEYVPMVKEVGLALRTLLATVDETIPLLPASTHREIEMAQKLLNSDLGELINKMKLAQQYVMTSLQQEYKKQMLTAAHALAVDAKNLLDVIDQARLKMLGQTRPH
Series [10] is described as follows: Aqueous solubility of the compound in PBS buffer at pH 6.8 by UV-Vis spectrophotometric method. It is filed as physicochemical.
The target in series [11] is BDNF/NT-3 growth factors receptor (Homo sapiens) (UniProt Q16620). The experiment in a line: Inhibition of TrkB (unknown origin) at 100 nM relative to control.
Sequence of BDNF/NT-3 growth factors receptor (Homo sapiens) (Q16620 32-822 limits assumed): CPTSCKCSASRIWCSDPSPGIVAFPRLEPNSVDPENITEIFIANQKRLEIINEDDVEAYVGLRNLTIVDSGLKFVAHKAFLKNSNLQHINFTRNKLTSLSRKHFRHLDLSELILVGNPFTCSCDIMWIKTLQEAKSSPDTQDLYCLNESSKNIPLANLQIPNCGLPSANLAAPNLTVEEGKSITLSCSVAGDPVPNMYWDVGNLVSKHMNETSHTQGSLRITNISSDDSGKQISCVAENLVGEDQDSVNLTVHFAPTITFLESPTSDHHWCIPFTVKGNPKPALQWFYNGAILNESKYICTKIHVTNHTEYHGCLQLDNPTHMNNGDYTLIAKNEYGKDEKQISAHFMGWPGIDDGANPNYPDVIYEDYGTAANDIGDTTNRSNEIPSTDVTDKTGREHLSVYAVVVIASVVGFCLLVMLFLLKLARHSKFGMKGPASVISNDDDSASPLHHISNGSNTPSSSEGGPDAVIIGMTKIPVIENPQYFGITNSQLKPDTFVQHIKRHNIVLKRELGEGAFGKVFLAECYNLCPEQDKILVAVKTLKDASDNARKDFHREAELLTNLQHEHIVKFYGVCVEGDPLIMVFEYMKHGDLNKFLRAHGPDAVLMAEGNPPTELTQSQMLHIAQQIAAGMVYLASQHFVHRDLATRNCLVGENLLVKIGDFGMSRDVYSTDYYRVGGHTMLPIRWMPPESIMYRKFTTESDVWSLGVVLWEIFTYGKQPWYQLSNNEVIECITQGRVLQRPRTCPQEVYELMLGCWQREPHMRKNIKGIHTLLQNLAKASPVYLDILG
Series [12] has as its system BaF3. Briefly: Cytotoxicity against mouse BAF3 cells incubated for 72 hrs by resazurin dye based assay. It is filed as cell-based. Particulars: BaF3, 72 h. Background: Alamar Blue is a resazurin reagent that responds to reducing activity.
Series [13] deals with Inhibitor of NF-kappa-B kinase (IKK) (Homo sapiens) (UniProt O14920+O15111+Q9Y6K9). Briefly: Inhibition of IKK (unknown origin) at 100 nM relative to control. Type of series: protein-complex assay.

From ChEMBL document CHEMBL4396901, “Discovery of Potent and Noncovalent Reversible EGFR Kinase Inhibitors of EGFRL858R/T790M/C797S” (ACS Med Chem Lett, 2019) come the findings set out here.

Sequence of Insulin-like growth factor 1 receptor (Homo sapiens) (P08069 31-736 limits assumed): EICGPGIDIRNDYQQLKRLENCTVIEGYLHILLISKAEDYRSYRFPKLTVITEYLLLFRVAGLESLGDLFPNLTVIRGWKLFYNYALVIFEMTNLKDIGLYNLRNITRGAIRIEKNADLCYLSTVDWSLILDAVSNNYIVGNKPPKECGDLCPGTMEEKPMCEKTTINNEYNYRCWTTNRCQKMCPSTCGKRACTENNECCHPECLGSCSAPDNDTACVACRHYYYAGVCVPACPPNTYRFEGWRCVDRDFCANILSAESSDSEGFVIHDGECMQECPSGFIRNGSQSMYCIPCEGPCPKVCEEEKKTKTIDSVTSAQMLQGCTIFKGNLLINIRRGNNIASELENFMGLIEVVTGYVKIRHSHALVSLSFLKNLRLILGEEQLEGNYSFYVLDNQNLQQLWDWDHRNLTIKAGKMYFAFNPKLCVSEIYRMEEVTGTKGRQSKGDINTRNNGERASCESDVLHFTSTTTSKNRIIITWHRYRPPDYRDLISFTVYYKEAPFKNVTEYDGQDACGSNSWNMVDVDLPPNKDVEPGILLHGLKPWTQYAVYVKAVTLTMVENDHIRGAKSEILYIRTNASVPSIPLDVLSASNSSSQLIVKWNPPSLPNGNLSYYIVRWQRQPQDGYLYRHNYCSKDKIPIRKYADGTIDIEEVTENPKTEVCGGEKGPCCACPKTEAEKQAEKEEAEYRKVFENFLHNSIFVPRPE
Sequence of Insulin-like growth factor 1 receptor (Homo sapiens) (P08069 741-1367 limits assumed): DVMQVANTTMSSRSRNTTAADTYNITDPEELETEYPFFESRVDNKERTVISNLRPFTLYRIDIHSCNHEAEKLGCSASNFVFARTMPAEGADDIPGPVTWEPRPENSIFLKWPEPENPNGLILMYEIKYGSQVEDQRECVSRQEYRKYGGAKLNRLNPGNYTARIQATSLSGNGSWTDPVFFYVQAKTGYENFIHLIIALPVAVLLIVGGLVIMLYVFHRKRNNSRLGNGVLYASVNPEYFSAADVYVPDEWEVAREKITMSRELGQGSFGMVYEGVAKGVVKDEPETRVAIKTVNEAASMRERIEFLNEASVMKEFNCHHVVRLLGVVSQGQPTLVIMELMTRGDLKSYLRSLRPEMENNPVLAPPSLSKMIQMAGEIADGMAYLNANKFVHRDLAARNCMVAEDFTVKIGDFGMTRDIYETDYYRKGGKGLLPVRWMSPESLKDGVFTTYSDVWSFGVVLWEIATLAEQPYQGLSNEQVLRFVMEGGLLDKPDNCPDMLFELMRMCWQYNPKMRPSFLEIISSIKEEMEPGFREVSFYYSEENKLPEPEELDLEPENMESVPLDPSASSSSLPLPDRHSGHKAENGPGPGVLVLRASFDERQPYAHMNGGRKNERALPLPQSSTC
Sequence of Ephrin type-A receptor 2 (Homo sapiens) (P29317 whole entry): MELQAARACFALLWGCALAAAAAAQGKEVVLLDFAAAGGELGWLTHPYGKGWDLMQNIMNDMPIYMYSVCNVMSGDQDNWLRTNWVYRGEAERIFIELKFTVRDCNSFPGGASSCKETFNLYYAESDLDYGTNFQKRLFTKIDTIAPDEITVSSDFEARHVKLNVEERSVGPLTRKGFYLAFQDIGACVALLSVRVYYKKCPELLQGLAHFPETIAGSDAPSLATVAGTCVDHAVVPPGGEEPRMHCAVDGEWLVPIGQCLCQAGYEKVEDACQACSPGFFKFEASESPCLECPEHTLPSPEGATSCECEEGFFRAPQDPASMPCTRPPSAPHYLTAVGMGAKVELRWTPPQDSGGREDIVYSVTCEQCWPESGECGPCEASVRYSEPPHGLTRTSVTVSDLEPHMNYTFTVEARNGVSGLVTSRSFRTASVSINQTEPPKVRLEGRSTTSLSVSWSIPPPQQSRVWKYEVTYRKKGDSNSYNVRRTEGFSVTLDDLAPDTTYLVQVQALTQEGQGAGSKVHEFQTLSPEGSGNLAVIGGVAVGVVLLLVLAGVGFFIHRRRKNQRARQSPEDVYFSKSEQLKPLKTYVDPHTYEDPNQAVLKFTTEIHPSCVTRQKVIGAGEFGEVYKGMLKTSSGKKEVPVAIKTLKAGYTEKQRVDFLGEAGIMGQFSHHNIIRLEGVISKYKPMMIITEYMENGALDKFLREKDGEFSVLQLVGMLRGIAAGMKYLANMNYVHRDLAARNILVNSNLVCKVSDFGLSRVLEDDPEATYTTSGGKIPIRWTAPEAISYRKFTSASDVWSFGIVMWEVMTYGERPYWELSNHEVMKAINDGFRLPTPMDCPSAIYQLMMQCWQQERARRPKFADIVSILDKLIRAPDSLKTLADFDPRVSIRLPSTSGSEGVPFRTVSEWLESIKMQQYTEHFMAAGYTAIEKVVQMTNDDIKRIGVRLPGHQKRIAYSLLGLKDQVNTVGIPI

On to `COc1cc2c(Nc3ccc(NC(=O)C(c4cc(F)ccc4F)N4Cc5ccccc5C4=O)cc3F)ncnc2cc1OCC1CCN(C)CC1` (stereo not drawn), for which the inhibition was < 25% in series [1]; 50 to 75% in [2]; < 25% in series [3]; < 25% in series [4]; < 25% in series [5]; < 25% in series [6]. The inhibition in [7], in series [8], in [9], in series [11] and in series [13] was < 25% each time. Further, in [10], the solubility entry is listed as “Insoluble”. Moreover, the IC50 in series [12] came out at 7.68 µM.

What is called inhibition is the relative decrease from the control value, in per cent. Low values mean a response near the control, high ones a response far below the control. One may read the IC50 as the concentration that inhibits the measured activity by half.
